From ChEMBL document CHEMBL1137207, “Solution structure of amyloid beta-peptide (25-35) in different media” (J Med Chem, 2004)
Values joined by “and” are separate entries in the source; they are usually repeats but may differ in a detail not shown here. Equal values may be shown once. Where a SMILES comes first, the peptide text is derived from it.

Assay: Retention time of the compound
Format: ADME

tR: 13.37 min and 10.93 min
SMILES: CC[C@H](C)[C@H](NC(=O)[C@H](C)NC(=O)CNC(=O)[C@H](CCCCN)NC(=O)[C@H](CC(N)=O)NC(=O)[C@H](CO)NC(=O)CN)C(=O)N[C@H](C(=O)NCC(=O)N[C@@H](CC(C)C)C(=O)N[C@@H](CCSC)C(=O)O)[C@@H](C)CC (H-GSNKGAIIGLM-OH)
